From patent US20260049076A1, “Tertiary Amine Substituted Bicyclic Compounds Useful as T Cell Activators” (BRISTOL-MYERS SQUIBB COMPANY, priority 2022, published 2026)

Key:
[1] = target: T1, human DGKζ (Homo sapiens, UniProt Q13574); test: In vitro DGK inhibition assay, DGKζ liposome (LIPGLO) assay; assay type: biochemical; conditions: read-out: Enzyme Inhibition DGKzeta IC50
T1 construct: TVMV protease cleavage site (C); Hexa-His (C); made in house; host or cells: Sf9 insect cells (baculovirus)
T1 sequence (Q13574 with tags, fused parts or gaps isoform Q13574-4): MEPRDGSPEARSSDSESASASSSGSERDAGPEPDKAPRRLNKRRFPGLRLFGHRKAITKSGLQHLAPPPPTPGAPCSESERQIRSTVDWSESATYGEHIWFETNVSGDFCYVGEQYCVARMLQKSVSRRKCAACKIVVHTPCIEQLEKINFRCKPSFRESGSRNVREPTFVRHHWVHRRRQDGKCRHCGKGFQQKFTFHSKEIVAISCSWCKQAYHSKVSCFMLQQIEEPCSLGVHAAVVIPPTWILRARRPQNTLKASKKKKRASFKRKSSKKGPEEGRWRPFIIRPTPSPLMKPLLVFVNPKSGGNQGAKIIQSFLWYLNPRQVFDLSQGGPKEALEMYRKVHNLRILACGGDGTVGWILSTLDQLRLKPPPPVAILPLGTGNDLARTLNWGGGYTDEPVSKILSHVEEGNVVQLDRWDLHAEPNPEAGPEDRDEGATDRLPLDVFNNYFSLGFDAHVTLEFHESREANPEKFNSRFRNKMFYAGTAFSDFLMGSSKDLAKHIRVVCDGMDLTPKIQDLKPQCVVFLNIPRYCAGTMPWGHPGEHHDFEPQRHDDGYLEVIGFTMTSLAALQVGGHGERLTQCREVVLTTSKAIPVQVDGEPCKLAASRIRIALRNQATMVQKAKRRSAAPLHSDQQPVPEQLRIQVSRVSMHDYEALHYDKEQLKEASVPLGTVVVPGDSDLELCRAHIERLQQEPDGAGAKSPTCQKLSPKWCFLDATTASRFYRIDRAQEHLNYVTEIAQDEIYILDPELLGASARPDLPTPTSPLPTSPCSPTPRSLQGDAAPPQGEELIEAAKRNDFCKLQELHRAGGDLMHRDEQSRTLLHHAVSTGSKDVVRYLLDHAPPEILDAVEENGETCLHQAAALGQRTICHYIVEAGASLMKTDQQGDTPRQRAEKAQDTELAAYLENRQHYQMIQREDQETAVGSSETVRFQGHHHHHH
In short: (§1)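 Baculovirus/Sf9-expressed His-tagged human DGKα or DGKζ (5 nM) on extruded liposomes (2 mM PS, 0.25 mM DAG, 2.75 mM PC) in MOPS pH 7.5 with MgCl2, CaCl2 and 150 μM ATP, 1 h.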

[2] = target: DGKalpha (Homo sapiens, UniProt P23743); test: Translocation DGKalpha; assay type: cell-based
DGKalpha, sequence (P23743 whole entry): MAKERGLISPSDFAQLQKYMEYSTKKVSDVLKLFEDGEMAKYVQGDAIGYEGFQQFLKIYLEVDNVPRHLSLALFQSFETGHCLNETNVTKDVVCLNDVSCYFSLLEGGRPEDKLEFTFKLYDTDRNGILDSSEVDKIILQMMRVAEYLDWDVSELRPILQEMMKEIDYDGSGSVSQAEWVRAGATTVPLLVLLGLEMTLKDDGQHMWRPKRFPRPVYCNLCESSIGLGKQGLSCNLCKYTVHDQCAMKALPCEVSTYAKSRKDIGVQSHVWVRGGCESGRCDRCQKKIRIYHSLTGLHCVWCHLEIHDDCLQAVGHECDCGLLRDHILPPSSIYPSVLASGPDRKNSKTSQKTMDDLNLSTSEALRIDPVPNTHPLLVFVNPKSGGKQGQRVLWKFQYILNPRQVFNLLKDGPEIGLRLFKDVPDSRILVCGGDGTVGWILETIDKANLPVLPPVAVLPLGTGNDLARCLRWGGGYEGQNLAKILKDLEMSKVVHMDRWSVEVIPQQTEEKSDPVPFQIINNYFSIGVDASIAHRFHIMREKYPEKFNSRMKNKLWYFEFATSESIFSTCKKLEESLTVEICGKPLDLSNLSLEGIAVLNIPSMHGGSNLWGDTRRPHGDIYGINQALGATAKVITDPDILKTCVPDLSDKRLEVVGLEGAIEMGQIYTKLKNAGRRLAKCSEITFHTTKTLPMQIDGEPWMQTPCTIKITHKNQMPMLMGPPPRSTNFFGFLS

[3] = target: T2, human DGKα (Homo sapiens, UniProt P23743); test: In vitro DGK inhibition assay, DGKα liposome (LIPGLO) assay; assay type: biochemical; conditions: read-out: Enzyme Inhibition DGKalpha IC50
T2 construct: TVMV protease cleavage site (C); Hexa-His (C); made in house; host or cells: Sf9 insect cells (baculovirus)
T2 sequence (P23743 with tags, fused parts or gaps): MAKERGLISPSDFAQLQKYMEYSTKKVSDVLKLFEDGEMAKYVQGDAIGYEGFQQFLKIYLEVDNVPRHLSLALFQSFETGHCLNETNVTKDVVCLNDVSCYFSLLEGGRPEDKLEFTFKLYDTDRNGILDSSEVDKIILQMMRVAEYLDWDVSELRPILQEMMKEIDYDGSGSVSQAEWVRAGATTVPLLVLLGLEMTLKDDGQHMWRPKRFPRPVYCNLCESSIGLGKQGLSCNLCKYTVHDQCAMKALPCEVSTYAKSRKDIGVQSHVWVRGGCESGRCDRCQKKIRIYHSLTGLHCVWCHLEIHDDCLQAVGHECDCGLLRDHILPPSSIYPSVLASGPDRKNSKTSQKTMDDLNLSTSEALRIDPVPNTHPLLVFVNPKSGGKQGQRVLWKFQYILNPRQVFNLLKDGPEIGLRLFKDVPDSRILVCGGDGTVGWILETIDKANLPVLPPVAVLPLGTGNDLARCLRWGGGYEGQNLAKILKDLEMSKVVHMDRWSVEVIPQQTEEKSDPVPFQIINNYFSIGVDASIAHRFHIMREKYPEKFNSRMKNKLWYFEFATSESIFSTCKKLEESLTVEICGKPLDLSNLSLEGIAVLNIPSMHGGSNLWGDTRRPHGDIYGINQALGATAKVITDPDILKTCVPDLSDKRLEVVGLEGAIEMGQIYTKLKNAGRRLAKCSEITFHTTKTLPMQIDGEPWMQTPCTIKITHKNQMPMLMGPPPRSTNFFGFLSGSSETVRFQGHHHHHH
In short: as §1

[4] = target: DGKzeta (Homo sapiens, UniProt Q13574); test: Translocation DGKzeta; assay type: cell-based
DGKzeta, sequence (Q13574 whole entry): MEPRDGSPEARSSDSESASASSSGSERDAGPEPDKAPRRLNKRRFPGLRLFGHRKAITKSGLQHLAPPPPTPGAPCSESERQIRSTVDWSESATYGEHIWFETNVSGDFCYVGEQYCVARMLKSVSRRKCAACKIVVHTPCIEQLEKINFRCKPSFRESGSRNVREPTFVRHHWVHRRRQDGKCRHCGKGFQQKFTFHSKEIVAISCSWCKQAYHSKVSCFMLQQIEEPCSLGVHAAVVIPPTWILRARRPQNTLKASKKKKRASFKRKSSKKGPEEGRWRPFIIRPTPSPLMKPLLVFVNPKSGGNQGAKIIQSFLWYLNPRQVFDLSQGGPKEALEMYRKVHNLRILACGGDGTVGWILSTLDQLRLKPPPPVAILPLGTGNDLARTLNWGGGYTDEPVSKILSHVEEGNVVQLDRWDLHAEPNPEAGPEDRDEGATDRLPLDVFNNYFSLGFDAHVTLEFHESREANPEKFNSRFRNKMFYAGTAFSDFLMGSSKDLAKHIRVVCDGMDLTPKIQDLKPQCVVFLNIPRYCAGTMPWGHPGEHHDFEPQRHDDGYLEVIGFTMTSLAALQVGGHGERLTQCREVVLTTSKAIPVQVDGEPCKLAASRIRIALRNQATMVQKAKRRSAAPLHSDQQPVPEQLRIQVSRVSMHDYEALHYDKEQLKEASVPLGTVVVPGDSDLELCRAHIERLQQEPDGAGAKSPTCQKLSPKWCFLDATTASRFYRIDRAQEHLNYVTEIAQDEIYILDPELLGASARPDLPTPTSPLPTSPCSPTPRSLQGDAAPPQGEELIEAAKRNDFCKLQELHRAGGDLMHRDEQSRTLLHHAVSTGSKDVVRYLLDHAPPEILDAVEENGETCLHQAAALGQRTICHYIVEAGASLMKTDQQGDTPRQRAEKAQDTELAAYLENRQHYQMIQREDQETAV

| IC50 [1] [µM] | EC50 [2] [µM] | IC50 [3] [µM] | EC50 [4] [µM] | Compound |
| --- | --- | --- | --- | --- |
| 2.9 | 0.75 | 3.8 | 0.54 | Cc1ccc(N(CC2CC2)c2cc(=O)n(C)c3ccc(C#N)nc23)cc1 [Example 62, 8-((cyclopropylmethyl)(p-tolyl)amino)-5-methyl-6-oxo-5,6-dihydro-1,5-naphthyridine-2-carbonitrile] |
| 3 | – | 0.15 | 1.6 | Cn1c(=O)cc(N(CC2CC2)c2ccc(F)nc2)c2nc(C#N)ccc21 [Example 64, 8-((cyclopropylmethyl)(6-fluoropyridin-3-yl)amino)-5-methyl-6-oxo-5,6-dihydro-1,5-naphthyridine-2-carbonitrile] |
| 2.7 | 1.1 | 1.9 | 0.57 | Cn1c(=O)cc(N(CC2CC2)c2ccc3occc3c2)c2nc(C#N)ccc21 [Example 65, 8-(benzofuran-5-yl (cyclopropylmethyl)amino)-5-methyl-6-oxo-5,6-dihydro-1,5-naphthyridine-2-carbonitrile] |
| 7.3 | – | 12 | – | COc1cc(-c2cccc(N(CC3CC3)c3cc(=O)n(C)c4ccc(C#N)nc34)c2)ccn1 [Example 110, 8-((cyclopropylmethyl)(3-(2-methoxypyridin-4-yl)phenyl)amino)-5-methyl-6-oxo-5,6-dihydro-1,5-naphthyridine-2-carbonitrile] |

The remaining lines, values behind:

| Compound | IC50 [1] [µM] | EC50 [2] [µM] | IC50 [3] [µM] | EC50 [4] [µM] |
| --- | --- | --- | --- | --- |
| Cn1c(=O)cc(N(CC2CC2)c2ccc(Br)cc2)c2nc(C#N)ccc21 [Example 18, 8-[(4-bromophenyl)(cyclopropylmethyl)amino]-5-methyl-6-oxo-5,6-dihydro-1,5-naphthyridine-2-carbonitrile] | 0.23 | 2.7 | 0.26 | 5 |
| Cn1c(=O)cc(N(CC2CC2)c2ccc(OCC(F)(F)F)cc2)c2nc(C#N)ccc21 [Example 37, 8-((cyclopropylmethyl)(4-(2,2,2-trifluoroethoxy)phenyl)amino)-5-methyl-6-oxo-5,6-dihydro-1,5-naphthyridine-2-carbonitrile] | 0.35 | 10 | 1.1 | 5 |
| Cn1c(=O)cc(N(CC2CC2)c2ccc(OC(F)F)c(C#N)c2)c2nc(C#N)ccc21 [Example 63, 8-((3-cyano-4-(difluoromethoxy)phenyl)(cyclopropylmethyl)amino)-5-methyl-6-oxo-5,6-dihydro-1,5-naphthyridine-2-carbonitrile] | 12 | – | 6.3 | 1.3 |
| Cn1c(=O)cc(N(CC2CC2)c2ccc(C#N)nc2)c2nc(C#N)ccc21 [Example 66, 8-((6-cyanopyridin-3-yl)(cyclopropylmethyl)amino)-5-methyl-6-oxo-5,6-dihydro-1,5-naphthyridine-2-carbonitrile] | 8.4 | – | 17 | 3 |
| Cn1c(=O)cc(N(CC2CC2)c2ccc(C3CCC3)cc2)c2nc(C#N)ccc21 [Example 118, 8-((4-cyclobutylphenyl) (cyclopropylmethyl)amino)-5-methyl-6-oxo-5,6-dihydro-1,5-naphthyridine-2-carbonitrile] | 1.3 | – | 9.3 | 0.013 |
| Cn1c(=O)cc(N(CC2CC2)c2ccc(C3CCCCC3)cc2)c2nc(C#N)ccc21 [Example 119, 8-((4-cyclohexylphenyl)(cyclopropylmethyl)amino)-5-methyl-6-oxo-5,6-dihydro-1,5-naphthyridine-2-carbonitrile] | 12 | – | 13 | 0.041 |
| Cn1c(=O)cc(N(CC2CC2)[C@H]2CC[C@H](c3ccccc3)CC2)c2nc(C#N)ccc21 [Example 121, 8-((cyclopropylmethyl)((1r,4r)-4-phenylcyclohexyl)amino)-5-methyl-6-oxo-5,6-dihydro-1,5-naphthyridine-2-carbonitrile] | 18 | – | 16 | 0.29 |
